{"source": "PubChem BioAssay AID2060615", "about": "(Molecular Pharmacology Branch, DTP, NCI, 2025);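 also: spheroids exposed to the drugs for 7 days before readout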;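 as to viability, T/C: 100% = DMSO vehicle control wells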", "tested_on": "496974-208-R-J2-PDC complex spheroids, growth % test/control", "experiment": "Anticancer human tumor 496974-208-R-J2-PDC patient-derived pancreatic carcinoma cell line growth inhibition [CLK]", "conditions": "for IC50: curve of first compound; for viability, T/C: stronger effect = lower value", "in_short": "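Patient-derived tumor cells grown as complex spheroids with HUVEC endothelial cells and mesenchymal stem cells, treated with drug combinations. Concentrations descend in half-log steps from near clinical Cmax, or from 10 microM if Cmax unknown.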", "key": {"[1]": {"conditions": "second compound 0.0316 µM, first compound 0.0316 µM"}, "[2]": {"conditions": "second compound 0.0316 µM, first compound 0.1 µM"}, "[3]": {"conditions": "second compound 0.0316 µM, first compound 0.316 µM"}, "[4]": {"conditions": "second compound 0.0316 µM, first compound 1 µM"}, "[5]": {"conditions": "second compound 0.0316 µM, first compound 3.16 µM"}, "[6]": {"conditions": "second compound 0.0316 µM, first compound 10 µM"}, "[7]": {"conditions": "second compound 0.1 µM, first compound 0.0316 µM"}, "[8]": {"conditions": "second compound 0.1 µM, first compound 0.1 µM"}, "[9]": {"conditions": "second compound 0.1 µM, first compound 0.316 µM"}, "[10]": {"conditions": "second compound 0.1 µM, first compound 1 µM"}, "[11]": {"conditions": "second compound 0.1 µM, first compound 3.16 µM"}, "[12]": {"conditions": "second compound 0.1 µM, first compound 10 µM"}, "[13]": {"conditions": "second compound 0.316 µM, first compound 0.0316 µM"}, "[14]": {"conditions": "second compound 0.316 µM, first compound 0.1 µM"}, "[15]": {"conditions": "second compound 0.316 µM, first compound 0.316 µM"}, "[16]": {"conditions": "second compound 0.316 µM, first compound 1 µM"}, "[17]": {"conditions": "second compound 0.316 µM, first compound 3.16 µM"}, "[18]": {"conditions": "second compound 0.316 µM, first compound 10 µM"}, "[19]": {"conditions": "second compound 1 µM, first compound 0.0316 µM"}, "[20]": {"conditions": "second compound 1 µM, first compound 0.1 µM"}, "[21]": {"conditions": "second compound 1 µM, first compound 0.316 µM"}, "[22]": {"conditions": "second compound 1 µM, first compound 1 µM"}, "[23]": {"conditions": "second compound 1 µM, first compound 3.16 µM"}, "[24]": {"conditions": "second compound 1 µM, first compound 10 µM"}, "[25]": {"conditions": "second compound 3.16 µM, first compound 0.0316 µM"}, "[26]": {"conditions": "second compound 3.16 µM, first compound 0.1 µM"}, "[27]": {"conditions": "second compound 3.16 µM, first compound 0.316 µM"}, "[28]": {"conditions": "second compound 3.16 µM, first compound 1 µM"}, "[29]": {"conditions": "second compound 3.16 µM, first compound 3.16 µM"}, "[30]": {"conditions": "second compound 3.16 µM, first compound 10 µM"}, "[31]": {"conditions": "second compound 10 µM, first compound 0.0316 µM"}, "[32]": {"conditions": "second compound 10 µM, first compound 0.1 µM"}, "[33]": {"conditions": "second compound 10 µM, first compound 0.316 µM"}, "[34]": {"conditions": "second compound 10 µM, first compound 1 µM"}, "[35]": {"conditions": "second compound 10 µM, first compound 3.16 µM"}, "[36]": {"conditions": "second compound 10 µM, first compound 10 µM"}}}
{"smiles": "C#Cc1c(F)ccc2cc(O)cc(-c3ncc4c(N5CC6CCC(C5)N6)nc(OCC56CCCN5CC(F)C6)nc4c3F)c12", "note": "(centres undefined) + CNC(=O)c1ccc(Nc2nc(OC3CCCC3)c3c(-c4ccc5nc(C)oc5c4)c[nH]c3n2)c(OC)c1", "values": [{"measurement": "IC50", "setting": "second compound 0.0316 µM", "value": 0.204, "unit": "µM"}, {"measurement": "IC50", "setting": "second compound 0.1 µM", "value": 0.0335, "unit": "µM"}, {"measurement": "IC50", "setting": "second compound 0.316 µM", "value": "< 0.0316", "unit": "µM"}, {"measurement": "IC50", "setting": "second compound 1 µM", "value": "< 0.0316", "unit": "µM"}, {"measurement": "IC50", "setting": "second compound 3.16 µM", "value": "< 0.0316", "unit": "µM"}, {"measurement": "IC50", "setting": "second compound 10 µM", "value": "< 0.0316", "unit": "µM"}, {"measurement": "viability, T/C", "setting": "[1]", "value": 62.4, "unit": "%"}, {"measurement": "viability, T/C", "setting": "[2]", "value": 56.8, "unit": "%"}, {"measurement": "viability, T/C", "setting": "[3]", "value": 46.1, "unit": "%"}, {"measurement": "viability, T/C", "setting": "[4]", "value": 42.2, "unit": "%"}, {"measurement": "viability, T/C", "setting": "[5]", "value": 42.9, "unit": "%"}, {"measurement": "viability, T/C", "setting": "[6]", "value": 41, "unit": "%"}, {"measurement": "viability, T/C", "setting": "[7]", "value": 57.7, "unit": "%"}, {"measurement": "viability, T/C", "setting": "[8]", "value": 46.7, "unit": "%"}, {"measurement": "viability, T/C", "setting": "[9]", "value": 35, "unit": "%"}, {"measurement": "viability, T/C", "setting": "[10]", "value": 37.2, "unit": "%"}, {"measurement": "viability, T/C", "setting": "[11]", "value": 34.6, "unit": "%"}, {"measurement": "viability, T/C", "setting": "[12]", "value": 43.1, "unit": "%"}, {"measurement": "viability, T/C", "setting": "[13]", "value": 45.2, "unit": "%"}, {"measurement": "viability, T/C", "setting": "[14]", "value": 40.2, "unit": "%"}, {"measurement": "viability, T/C", "setting": "[15]", "value": 37.2, "unit": "%"}, {"measurement": "viability, T/C", "setting": "[16]", "value": 33, "unit": "%"}, {"measurement": "viability, T/C", "setting": "[17]", "value": 33.5, "unit": "%"}, {"measurement": "viability, T/C", "setting": "[18]", "value": 31, "unit": "%"}, {"measurement": "viability, T/C", "setting": "[19]", "value": 37.8, "unit": "%"}, {"measurement": "viability, T/C", "setting": "[20]", "value": 32.5, "unit": "%"}, {"measurement": "viability, T/C", "setting": "[21]", "value": 31.2, "unit": "%"}, {"measurement": "viability, T/C", "setting": "[22]", "value": 28.1, "unit": "%"}, {"measurement": "viability, T/C", "setting": "[23]", "value": 31.3, "unit": "%"}, {"measurement": "viability, T/C", "setting": "[24]", "value": 28.4, "unit": "%"}, {"measurement": "viability, T/C", "setting": "[25]", "value": 33.5, "unit": "%"}, {"measurement": "viability, T/C", "setting": "[26]", "value": 30.4, "unit": "%"}, {"measurement": "viability, T/C", "setting": "[27]", "value": 27.2, "unit": "%"}, {"measurement": "viability, T/C", "setting": "[28]", "value": 25.8, "unit": "%"}, {"measurement": "viability, T/C", "setting": "[29]", "value": 27.6, "unit": "%"}, {"measurement": "viability, T/C", "setting": "[30]", "value": 23.8, "unit": "%"}, {"measurement": "viability, T/C", "setting": "[31]", "value": 30.1, "unit": "%"}, {"measurement": "viability, T/C", "setting": "[32]", "value": 27.9, "unit": "%"}, {"measurement": "viability, T/C", "setting": "[33]", "value": 27, "unit": "%"}, {"measurement": "viability, T/C", "setting": "[34]", "value": 22.8, "unit": "%"}, {"measurement": "viability, T/C", "setting": "[35]", "value": 23.5, "unit": "%"}, {"measurement": "viability, T/C", "setting": "[36]", "value": 21.2, "unit": "%"}]}
{"smiles": "CC(CO)NC(=O)c1cc(-c2ccc(Cl)cc2)nn(-c2cnn(C)c2)c1=O", "note": "(centres undefined) + CNC(=O)c1ccc(Nc2nc(OC3CCCC3)c3c(-c4ccc5nc(C)oc5c4)c[nH]c3n2)c(OC)c1", "values": [{"measurement": "IC50", "setting": "second compound 0.0316 µM", "value": "> 10", "unit": "µM"}, {"measurement": "IC50", "setting": "second compound 0.1 µM", "value": 6.65, "unit": "µM"}, {"measurement": "IC50", "setting": "second compound 0.316 µM", "value": 6.97, "unit": "µM"}, {"measurement": "IC50", "setting": "second compound 1 µM", "value": 3.29, "unit": "µM"}, {"measurement": "IC50", "setting": "second compound 3.16 µM", "value": 5.16, "unit": "µM"}, {"measurement": "IC50", "setting": "second compound 10 µM", "value": 4.14, "unit": "µM"}, {"measurement": "viability, T/C", "setting": "[1]", "value": 103, "unit": "%"}, {"measurement": "viability, T/C", "setting": "[2]", "value": 91.4, "unit": "%"}, {"measurement": "viability, T/C", "setting": "[3]", "value": 92.8, "unit": "%"}, {"measurement": "viability, T/C", "setting": "[4]", "value": 90.4, "unit": "%"}, {"measurement": "viability, T/C", "setting": "[5]", "value": 89.1, "unit": "%"}, {"measurement": "viability, T/C", "setting": "[6]", "value": 55, "unit": "%"}, {"measurement": "viability, T/C", "setting": "[7]", "value": 87.3, "unit": "%"}, {"measurement": "viability, T/C", "setting": "[8]", "value": 74.5, "unit": "%"}, {"measurement": "viability, T/C", "setting": "[9]", "value": 80.8, "unit": "%"}, {"measurement": "viability, T/C", "setting": "[10]", "value": 63.1, "unit": "%"}, {"measurement": "viability, T/C", "setting": "[11]", "value": 65.4, "unit": "%"}, {"measurement": "viability, T/C", "setting": "[12]", "value": 42.6, "unit": "%"}, {"measurement": "viability, T/C", "setting": "[13]", "value": 79.2, "unit": "%"}, {"measurement": "viability, T/C", "setting": "[14]", "value": 67.3, "unit": "%"}, {"measurement": "viability, T/C", "setting": "[15]", "value": 72.6, "unit": "%"}, {"measurement": "viability, T/C", "setting": "[16]", "value": 69, "unit": "%"}, {"measurement": "viability, T/C", "setting": "[17]", "value": 59.4, "unit": "%"}, {"measurement": "viability, T/C", "setting": "[18]", "value": 44.9, "unit": "%"}, {"measurement": "viability, T/C", "setting": "[19]", "value": 71, "unit": "%"}, {"measurement": "viability, T/C", "setting": "[20]", "value": 71.8, "unit": "%"}, {"measurement": "viability, T/C", "setting": "[21]", "value": 63.5, "unit": "%"}, {"measurement": "viability, T/C", "setting": "[22]", "value": 59.7, "unit": "%"}, {"measurement": "viability, T/C", "setting": "[23]", "value": 50.9, "unit": "%"}, {"measurement": "viability, T/C", "setting": "[24]", "value": 37.9, "unit": "%"}, {"measurement": "viability, T/C", "setting": "[25]", "value": 62.4, "unit": "%"}, {"measurement": "viability, T/C", "setting": "[26]", "value": 57.9, "unit": "%"}, {"measurement": "viability, T/C", "setting": "[27]", "value": 52, "unit": "%"}, {"measurement": "viability, T/C", "setting": "[28]", "value": 58.4, "unit": "%"}, {"measurement": "viability, T/C", "setting": "[29]", "value": 56.6, "unit": "%"}, {"measurement": "viability, T/C", "setting": "[30]", "value": 41.1, "unit": "%"}, {"measurement": "viability, T/C", "setting": "[31]", "value": 55.5, "unit": "%"}, {"measurement": "viability, T/C", "setting": "[32]", "value": 54.8, "unit": "%"}, {"measurement": "viability, T/C", "setting": "[33]", "value": 49.8, "unit": "%"}, {"measurement": "viability, T/C", "setting": "[34]", "value": 47.1, "unit": "%"}, {"measurement": "viability, T/C", "setting": "[35]", "value": 56.5, "unit": "%"}, {"measurement": "viability, T/C", "setting": "[36]", "value": 41, "unit": "%"}]}
